ChEMBL document CHEMBL5465560, “Selectivity Literature for EUbOPEN Chemogenomic Library” (2024)

Legend:
[1] = biological target: T1, Peripheral plasma membrane protein CASK (Homo sapiens) (UniProt O14936); assay: Selectivity interaction (LanthaScreen Eu Kinase Binding Assay) EUB0001632a CASK; conditions: at 10 µM
T1 sequence (whole entry): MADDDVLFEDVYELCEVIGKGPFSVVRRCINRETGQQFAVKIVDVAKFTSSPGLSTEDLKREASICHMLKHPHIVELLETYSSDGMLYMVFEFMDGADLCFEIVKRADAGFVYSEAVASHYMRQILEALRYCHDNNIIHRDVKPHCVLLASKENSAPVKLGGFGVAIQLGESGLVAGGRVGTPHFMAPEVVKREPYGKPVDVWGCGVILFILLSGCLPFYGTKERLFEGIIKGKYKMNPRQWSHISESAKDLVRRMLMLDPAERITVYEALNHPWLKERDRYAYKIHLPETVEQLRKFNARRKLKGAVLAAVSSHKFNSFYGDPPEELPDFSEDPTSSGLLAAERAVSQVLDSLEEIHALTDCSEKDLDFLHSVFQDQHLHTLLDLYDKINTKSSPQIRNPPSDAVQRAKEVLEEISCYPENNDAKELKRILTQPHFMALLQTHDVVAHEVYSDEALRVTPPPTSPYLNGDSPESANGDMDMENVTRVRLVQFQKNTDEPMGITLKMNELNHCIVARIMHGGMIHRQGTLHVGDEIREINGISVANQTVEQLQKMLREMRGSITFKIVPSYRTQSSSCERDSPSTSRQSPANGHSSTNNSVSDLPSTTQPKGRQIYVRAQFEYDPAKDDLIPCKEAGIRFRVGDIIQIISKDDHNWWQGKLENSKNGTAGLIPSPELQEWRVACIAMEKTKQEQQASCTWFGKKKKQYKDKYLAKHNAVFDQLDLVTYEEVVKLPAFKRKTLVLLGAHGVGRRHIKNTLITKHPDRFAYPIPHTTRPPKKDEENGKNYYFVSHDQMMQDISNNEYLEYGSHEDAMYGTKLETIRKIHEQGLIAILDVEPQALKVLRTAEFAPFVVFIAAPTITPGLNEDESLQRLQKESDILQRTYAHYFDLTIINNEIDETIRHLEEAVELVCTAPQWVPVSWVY

[2] = biological target: T2, Mitogen-activated protein kinase 12 (Homo sapiens) (UniProt P53778); assay: Selectivity interaction (KinomeScan (DiscoverX)) EUB0000595a MAPK12; conditions: at 10 µM
T2 sequence (whole entry): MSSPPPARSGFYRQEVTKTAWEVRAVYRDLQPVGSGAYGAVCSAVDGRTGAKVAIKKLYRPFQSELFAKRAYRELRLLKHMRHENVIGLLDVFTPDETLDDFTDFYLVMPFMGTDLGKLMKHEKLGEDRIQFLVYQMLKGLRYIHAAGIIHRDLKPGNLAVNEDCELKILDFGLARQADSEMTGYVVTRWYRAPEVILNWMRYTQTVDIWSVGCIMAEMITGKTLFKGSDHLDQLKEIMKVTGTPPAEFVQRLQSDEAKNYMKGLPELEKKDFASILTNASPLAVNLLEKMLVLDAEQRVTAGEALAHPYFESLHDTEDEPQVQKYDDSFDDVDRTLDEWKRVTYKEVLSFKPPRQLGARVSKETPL

[3] = tested on: Epidermal growth factor receptor (Homo sapiens), P00533 [G719C]; conditions: at 10 µM
Chain of Epidermal growth factor receptor (Homo sapiens), P00533 [G719C] (P00533 whole entry G719C): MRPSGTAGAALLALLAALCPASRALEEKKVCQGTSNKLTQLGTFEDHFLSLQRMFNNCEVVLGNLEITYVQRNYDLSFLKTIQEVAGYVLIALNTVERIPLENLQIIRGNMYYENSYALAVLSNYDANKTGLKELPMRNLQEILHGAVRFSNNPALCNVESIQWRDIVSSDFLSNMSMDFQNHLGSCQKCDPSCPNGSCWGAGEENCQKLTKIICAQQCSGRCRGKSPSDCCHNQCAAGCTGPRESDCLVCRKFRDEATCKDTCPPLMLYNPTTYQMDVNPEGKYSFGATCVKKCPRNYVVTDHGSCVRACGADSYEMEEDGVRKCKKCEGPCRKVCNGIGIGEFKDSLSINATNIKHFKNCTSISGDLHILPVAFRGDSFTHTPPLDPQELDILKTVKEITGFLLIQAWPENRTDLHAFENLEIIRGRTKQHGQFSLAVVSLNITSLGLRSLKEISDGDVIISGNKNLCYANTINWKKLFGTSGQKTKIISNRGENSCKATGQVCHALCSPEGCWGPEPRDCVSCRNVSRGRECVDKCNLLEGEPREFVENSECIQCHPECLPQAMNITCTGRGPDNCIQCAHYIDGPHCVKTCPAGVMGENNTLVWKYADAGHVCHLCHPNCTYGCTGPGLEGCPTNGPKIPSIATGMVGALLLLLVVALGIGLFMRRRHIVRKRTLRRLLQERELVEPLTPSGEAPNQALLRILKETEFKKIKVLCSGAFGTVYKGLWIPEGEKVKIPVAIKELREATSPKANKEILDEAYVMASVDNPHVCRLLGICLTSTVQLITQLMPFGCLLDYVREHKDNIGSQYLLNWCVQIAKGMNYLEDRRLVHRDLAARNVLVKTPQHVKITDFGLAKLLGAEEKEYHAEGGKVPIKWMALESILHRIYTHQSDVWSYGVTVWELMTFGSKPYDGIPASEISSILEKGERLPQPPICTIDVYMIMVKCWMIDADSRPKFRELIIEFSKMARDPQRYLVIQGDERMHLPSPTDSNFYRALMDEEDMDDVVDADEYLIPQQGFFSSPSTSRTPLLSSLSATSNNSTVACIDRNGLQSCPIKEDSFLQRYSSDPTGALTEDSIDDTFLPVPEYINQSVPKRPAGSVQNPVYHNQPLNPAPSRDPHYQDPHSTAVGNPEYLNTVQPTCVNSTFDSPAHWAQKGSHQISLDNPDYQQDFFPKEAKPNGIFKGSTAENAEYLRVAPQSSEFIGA

[4] = biological target: T3, Non-receptor tyrosine-protein kinase TNK1 (Homo sapiens) (UniProt Q13470); assay: Selectivity interaction (KinomeScan (DiscoverX)) EUB0000045b TNK1
T3 sequence (whole entry): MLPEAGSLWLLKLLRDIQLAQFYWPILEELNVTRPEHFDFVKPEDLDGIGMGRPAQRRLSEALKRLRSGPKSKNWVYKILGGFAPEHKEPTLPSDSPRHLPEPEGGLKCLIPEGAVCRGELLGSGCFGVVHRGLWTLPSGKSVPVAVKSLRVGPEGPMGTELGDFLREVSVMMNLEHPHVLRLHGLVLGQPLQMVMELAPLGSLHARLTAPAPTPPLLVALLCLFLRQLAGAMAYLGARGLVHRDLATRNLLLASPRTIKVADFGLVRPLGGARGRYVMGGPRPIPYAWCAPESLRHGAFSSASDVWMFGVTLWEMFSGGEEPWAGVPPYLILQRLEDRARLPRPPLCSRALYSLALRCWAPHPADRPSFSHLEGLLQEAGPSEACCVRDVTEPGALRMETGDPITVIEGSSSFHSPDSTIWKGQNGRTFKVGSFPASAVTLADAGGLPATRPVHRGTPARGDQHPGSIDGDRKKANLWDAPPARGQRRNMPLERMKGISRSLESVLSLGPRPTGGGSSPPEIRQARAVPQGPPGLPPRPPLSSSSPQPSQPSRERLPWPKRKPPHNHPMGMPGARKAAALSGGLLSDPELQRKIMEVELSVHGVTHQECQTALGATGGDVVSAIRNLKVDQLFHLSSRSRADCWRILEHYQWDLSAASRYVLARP

[5] = biological target: T4, Testis-specific serine/threonine-protein kinase 3 (Homo sapiens) (UniProt Q96PN8); assay: Selectivity interaction (KinomeScan (DiscoverX)) EUB0001079a TSSK3; conditions: at 1 µM
T4 sequence (whole entry): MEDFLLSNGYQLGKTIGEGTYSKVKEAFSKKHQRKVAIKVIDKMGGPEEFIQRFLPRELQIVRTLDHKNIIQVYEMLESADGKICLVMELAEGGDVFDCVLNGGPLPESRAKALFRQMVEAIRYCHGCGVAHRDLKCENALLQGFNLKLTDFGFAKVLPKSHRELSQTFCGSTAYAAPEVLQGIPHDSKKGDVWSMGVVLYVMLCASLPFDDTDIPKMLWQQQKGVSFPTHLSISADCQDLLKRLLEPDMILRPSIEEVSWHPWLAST

[6] = biological target: Proto-oncogene tyrosine-protein kinase ROS (Homo sapiens) (UniProt P08922); assay: Selectivity interaction (KinomeScan (DiscoverX)) EUB0000229b ROS1; conditions: at 10 µM
Chain of Proto-oncogene tyrosine-protein kinase ROS (Homo sapiens) (P08922 whole entry): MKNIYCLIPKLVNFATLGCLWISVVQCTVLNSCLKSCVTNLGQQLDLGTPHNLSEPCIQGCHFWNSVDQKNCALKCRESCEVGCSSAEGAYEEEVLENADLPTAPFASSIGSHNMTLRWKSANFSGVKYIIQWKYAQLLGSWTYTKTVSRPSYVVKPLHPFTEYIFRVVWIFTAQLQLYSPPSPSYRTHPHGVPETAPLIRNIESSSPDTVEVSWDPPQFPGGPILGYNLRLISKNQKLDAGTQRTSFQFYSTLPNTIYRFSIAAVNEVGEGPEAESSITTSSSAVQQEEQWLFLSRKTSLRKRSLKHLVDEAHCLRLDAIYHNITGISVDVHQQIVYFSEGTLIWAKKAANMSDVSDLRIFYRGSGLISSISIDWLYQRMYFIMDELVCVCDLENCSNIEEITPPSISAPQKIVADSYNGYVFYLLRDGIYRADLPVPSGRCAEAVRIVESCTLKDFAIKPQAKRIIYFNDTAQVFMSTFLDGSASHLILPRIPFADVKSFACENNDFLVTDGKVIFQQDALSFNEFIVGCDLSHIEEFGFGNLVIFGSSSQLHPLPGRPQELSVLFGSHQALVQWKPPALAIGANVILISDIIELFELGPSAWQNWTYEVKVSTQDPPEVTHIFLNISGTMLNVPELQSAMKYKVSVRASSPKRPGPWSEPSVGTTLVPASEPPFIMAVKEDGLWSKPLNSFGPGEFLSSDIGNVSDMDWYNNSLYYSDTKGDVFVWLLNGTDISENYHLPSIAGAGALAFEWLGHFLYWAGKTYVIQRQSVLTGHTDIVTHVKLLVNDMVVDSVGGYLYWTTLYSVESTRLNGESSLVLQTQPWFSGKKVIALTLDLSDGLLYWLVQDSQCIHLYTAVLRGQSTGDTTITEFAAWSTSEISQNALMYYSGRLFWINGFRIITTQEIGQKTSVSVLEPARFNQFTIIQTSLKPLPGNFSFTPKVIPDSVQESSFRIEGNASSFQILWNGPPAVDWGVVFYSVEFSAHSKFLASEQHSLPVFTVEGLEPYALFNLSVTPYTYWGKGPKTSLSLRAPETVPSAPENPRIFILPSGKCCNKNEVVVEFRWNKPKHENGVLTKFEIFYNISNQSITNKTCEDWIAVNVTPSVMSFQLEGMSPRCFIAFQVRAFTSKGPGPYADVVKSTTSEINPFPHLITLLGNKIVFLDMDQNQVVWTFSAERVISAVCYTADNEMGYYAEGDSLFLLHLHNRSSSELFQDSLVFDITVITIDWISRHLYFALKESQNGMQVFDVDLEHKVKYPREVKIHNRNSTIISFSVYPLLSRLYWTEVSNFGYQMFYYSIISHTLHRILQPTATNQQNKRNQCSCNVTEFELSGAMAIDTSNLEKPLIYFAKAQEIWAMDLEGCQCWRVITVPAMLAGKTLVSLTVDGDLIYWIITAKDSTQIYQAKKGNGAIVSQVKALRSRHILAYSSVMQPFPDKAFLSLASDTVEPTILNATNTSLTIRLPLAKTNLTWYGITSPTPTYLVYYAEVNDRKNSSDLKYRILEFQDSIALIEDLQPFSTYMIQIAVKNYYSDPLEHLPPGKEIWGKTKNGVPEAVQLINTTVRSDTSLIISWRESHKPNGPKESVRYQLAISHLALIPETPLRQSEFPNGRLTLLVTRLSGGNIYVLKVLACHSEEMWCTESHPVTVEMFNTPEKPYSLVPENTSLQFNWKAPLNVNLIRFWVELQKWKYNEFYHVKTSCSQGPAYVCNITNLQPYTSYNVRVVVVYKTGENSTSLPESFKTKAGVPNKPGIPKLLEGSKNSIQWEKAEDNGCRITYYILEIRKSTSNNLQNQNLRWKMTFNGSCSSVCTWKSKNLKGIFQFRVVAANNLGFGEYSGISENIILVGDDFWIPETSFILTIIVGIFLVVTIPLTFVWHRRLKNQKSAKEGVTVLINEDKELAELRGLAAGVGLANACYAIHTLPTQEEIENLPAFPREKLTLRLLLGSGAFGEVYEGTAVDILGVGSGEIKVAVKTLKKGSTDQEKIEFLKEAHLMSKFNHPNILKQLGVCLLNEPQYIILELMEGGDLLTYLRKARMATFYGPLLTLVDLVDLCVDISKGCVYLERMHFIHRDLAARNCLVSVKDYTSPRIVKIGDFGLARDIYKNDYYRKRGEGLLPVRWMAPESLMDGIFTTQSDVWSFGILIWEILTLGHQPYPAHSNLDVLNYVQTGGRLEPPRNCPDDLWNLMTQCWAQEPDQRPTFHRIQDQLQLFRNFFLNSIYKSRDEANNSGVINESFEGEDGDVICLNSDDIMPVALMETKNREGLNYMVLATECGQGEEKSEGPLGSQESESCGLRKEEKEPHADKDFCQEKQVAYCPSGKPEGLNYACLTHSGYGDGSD

[7] = biological target: T5, Mitogen-activated protein kinase 13 (Homo sapiens) (UniProt O15264); assay: Selectivity interaction (KinomeScan (DiscoverX)) EUB0000092b MAPK13; conditions: at 10 µM
T5 sequence (whole entry): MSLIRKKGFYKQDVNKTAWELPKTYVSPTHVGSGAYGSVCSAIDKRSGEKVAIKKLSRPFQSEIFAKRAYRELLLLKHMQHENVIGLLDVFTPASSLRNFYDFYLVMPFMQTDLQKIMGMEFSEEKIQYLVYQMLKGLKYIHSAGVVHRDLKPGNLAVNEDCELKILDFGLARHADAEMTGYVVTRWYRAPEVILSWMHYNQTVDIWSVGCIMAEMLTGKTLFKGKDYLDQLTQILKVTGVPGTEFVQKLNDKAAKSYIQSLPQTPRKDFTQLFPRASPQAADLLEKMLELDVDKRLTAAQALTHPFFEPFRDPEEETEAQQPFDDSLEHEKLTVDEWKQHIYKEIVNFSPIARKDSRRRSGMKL

[8] = biological target: Ribosomal protein S6 kinase alpha-3 (Homo sapiens, UniProt P51812); assay: Selectivity interaction (ActivX KiNativ screen (ex vivo kinase selectivity in human PBMCs)) EUB0001619a RPS6KA3; type: cell-based; conditions: PBMC, at 1 µM
Chain of Ribosomal protein S6 kinase alpha-3 (P51812 whole entry): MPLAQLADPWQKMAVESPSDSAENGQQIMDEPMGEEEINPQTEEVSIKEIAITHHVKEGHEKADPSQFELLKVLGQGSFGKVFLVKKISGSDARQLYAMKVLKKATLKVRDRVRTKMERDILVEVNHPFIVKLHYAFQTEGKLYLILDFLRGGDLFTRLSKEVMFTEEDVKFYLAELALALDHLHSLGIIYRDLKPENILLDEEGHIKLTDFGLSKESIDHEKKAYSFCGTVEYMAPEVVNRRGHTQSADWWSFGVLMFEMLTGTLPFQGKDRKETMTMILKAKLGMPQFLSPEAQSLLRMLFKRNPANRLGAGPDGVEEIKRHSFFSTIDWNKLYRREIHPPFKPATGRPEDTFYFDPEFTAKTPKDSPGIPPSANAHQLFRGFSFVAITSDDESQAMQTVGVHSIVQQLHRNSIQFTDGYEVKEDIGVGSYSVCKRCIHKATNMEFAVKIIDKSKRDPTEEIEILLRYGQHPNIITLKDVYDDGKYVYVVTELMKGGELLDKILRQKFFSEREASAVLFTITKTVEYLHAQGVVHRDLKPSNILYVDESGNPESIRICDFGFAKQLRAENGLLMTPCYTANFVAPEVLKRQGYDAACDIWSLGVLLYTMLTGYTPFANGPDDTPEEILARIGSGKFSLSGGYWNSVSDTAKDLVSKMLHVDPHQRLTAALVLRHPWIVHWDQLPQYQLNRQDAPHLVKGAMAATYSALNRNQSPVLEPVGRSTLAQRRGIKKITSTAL

Question: How did the % of inhibition [1] turn out when `Cn1cc(-n2cnc3c(NCc4nc5cc(Cl)c(Cl)cc5[nH]4)nc(N4CCOCC4)nc32)cn1` was run?
Answer: -92.6%

Question: For `COCC(=O)NC/C=C/c1ccc2ncnc(Nc3ccc(Oc4ccc(C)nc4)c(C)c3)c2c1` [CP-724714], which % of control [2] is on record?
Answer: 100%

Question: What about the % of control [3] of the same compound?
Answer: 0%

Question: With `C=CC(=O)Nc1cc(-n2c(=O)ccc3cnc4ccc(-c5ccc(NS(C)(=O)=O)cc5)cc4c32)ccc1C` as the compound, how does the % of control ([4]; at 1 µM) read?
Answer: 100%

Question: What about the % of control ([4]; at 10 µM) of the same compound?
Answer: 100%

Question: For `Nc1cnc(N2CCc3cc(S(=O)(=O)Nc4c(F)cc(Cl)cc4F)cc(N4CCCC4=O)c32)nc1` [TP-020n], which % of control [5] is on record?
Answer: 100%

Question: `COc1cc(N(C)c2ccnc3ccc(C(F)(F)F)cc23)cc(OC)c1OC` was tested. Which % binding [6] did it give?
Answer: 86%

Question: How did the % of control [7] turn out when `CCC(=O)N1CCN(c2ccc(-n3c(=O)ccc4cnc5ccc(-c6cnc7ccccc7c6)cc5c43)cc2C(F)(F)F)CC1` was run?
Answer: 39%

Question: `N#Cc1cccc(-c2c[nH]c3ncnc(N4CCOCC4)c23)c1` was tested. Which % of inhibition [8] did it give?
Answer: -11%
